Measured values as given in PMC6517818, “The yeast mitochondrial pyruvate carrier is a hetero‐dimer in its functional state” (The EMBO Journal, 2019).
Read-outs that look alike come from different tables or passages of the source.

B3: Mpc3 after nickel-affinity purification and Factor Xa cleavage of the histidine tag (natural protein, S. cerevisiae, UniProt P53311 1-146, looked up)
chain: MSASAFNFAFRRFWNSETGPKTVHFWAPTLKWGLVFAGLNDIKRPVEKVSGAQNLSLLATALIWTRWSFVIKPKNYLLASVNFFLGCTAGYHLTRIANFRIRNGDSFKQVIHYIIKGETPAAVAAKQTASTSMNKGVIGTNPPITH
notes: Mpc3, S. cerevisiae, UniProt P53311; codon-optimised synthetic gene; theoretical mass 17.1 kDa; Same construct as m2 after tag removal; The residues IEGR of the Factor Xa site probably remain at the C-terminus after cleavage (surmised); source: S. cerevisiae mitochondria (with Mpc1: W303-1B or SHY15; alone: SHY15), purified (nickel Sepharose, on-column Factor Xa cleavage) in LMNG and tetraoleoyl …

Key:
[1] = target: T1, Mpc1 (Mpc1/Mpc3 hetero-dimer, mitochondrial pyruvate carrier) (Saccharomyces cerevisiae, UniProt P53157+P53311); test: […]-pyruvate homo-exchange inhibition in proteoliposomes; format: biochemical
T1 construct: Mpc1/Mpc3 hetero-complex, untagged Mpc1 co-expressed with C-terminally tagged Mpc3, reconstituted in liposomes; with Mpc3 (P53311)
T1 sequence (P53157 1-130): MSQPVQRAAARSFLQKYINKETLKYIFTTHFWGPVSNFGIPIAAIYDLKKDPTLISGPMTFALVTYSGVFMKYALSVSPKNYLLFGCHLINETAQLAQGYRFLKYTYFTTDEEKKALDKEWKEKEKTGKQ
T1 sequence (P53311 21-146): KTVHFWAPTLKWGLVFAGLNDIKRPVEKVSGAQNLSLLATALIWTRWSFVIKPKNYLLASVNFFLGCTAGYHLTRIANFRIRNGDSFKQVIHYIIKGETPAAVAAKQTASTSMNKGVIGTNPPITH

[2] = target: T2, Mpc2 (Mpc1/Mpc2 hetero-complex, MPCFERM) (Saccharomyces cerevisiae, UniProt P38857+P53157); test: time course of pyruvate homo-exchange in proteoliposomes at ΔpH […]; format: biochemical
T2 construct: Mpc1/Mpc2 hetero-complex with C-terminally tagged Mpc2, reconstituted in liposomes; with Mpc1 (P53157)
T2 sequence (P38857 1-129): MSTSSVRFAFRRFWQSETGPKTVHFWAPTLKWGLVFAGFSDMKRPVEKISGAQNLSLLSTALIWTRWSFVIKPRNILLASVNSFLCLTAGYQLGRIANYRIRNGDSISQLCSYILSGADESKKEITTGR
T2 sequence (P53157 1-130): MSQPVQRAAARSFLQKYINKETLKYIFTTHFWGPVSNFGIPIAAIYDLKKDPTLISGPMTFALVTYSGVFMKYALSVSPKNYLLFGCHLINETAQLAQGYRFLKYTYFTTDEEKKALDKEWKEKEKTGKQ

purified protein = substrate: CC(=O)C(=O)O; test: purified protein; format: biochemical, Saccharomyces cerevisiae
[3] = target: B3; test: SEC-MALS; SEC-MALLS, Superdex 200 10/300 GL; 20 mM Tris-HCl pH 7.4, 150 mM NaCl, 0.005% LMNG, 0.005 mg/ml TOCL; nickel-affinity-purified Mpc1/Mpc3 complex or Mpc3 alone injected; protein-conjugate method; details: both partners purified
[4] = target: T3, Mpc3 with a C-terminal Factor Xa cleavage site and octa-histidine tag (S. cerevisiae, UniProt P53311 1-146); test: pull-down; nickel-affinity co-purification: untagged Mpc1 co-expressed with His8-tagged partner in yeast mitochondria; solubilised in 1% LMNG, 20 mM Tris-HCl pH 7.4, 150 mM NaCl, 4 °C; bound to nickel Sepharose, washed with 40 mM imidazole, 0.1% LMNG, 0.1 mg/ml TOCL; released by on-column Factor Xa cleavage; SDS-PAGE with Coomassie stain and peptide mass fingerprinting; Mpc1/Mpc3 also purified in Triton X-100, DMNG …; details: partners not purified
T3 construct: Mpc3, S. cerevisiae, UniProt P53311; codon-optimised synthetic gene; This is the tagged form as captured on the nickel resin; The complex was then released by on-column Factor Xa cleavage; also called Mpc3his; histidine-tagged Mpc3; source: S. cerevisiae mitochondria (SHY15 or W303-1B), co-expressed from pBEVY-GU with untagged Mpc1; LMNG-solubilised mitochondria, captured on nickel …
T3 sequence (looked up): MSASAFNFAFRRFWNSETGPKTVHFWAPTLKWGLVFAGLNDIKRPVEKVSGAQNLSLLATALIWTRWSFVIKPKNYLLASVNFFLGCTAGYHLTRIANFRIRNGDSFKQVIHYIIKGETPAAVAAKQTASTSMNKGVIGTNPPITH

[5] = target: the molecule itself; test: SEC-MALS; SEC-MALLS, Superdex 200 10/300 GL; 20 mM Tris-HCl pH 7.4, 150 mM NaCl, 0.005% LMNG, 0.005 mg/ml TOCL; nickel-affinity-purified Mpc1/Mpc3 complex or Mpc3 alone injected; protein-conjugate method

Molecule: CN(Cc1ccccc1)c1ccc2cc(C(=O)O)c(=O)oc2c1 [7ACC2]
- IC50 ([1]; read-out: IC50): 27 ± 13 µM

Molecule: N#C/C(=C\c1cn(-c2ccccc2)c2ccccc12)C(=O)O [UK5099]
- IC50 ([1]; read-out: IC50): 9 ± 7 µM

Molecule: O=C(O)c1nn(Cc2ccc(Cl)cc2Cl)c2ccccc12 [lonidamine]
- IC50 [1]: 118 ± 24 µM

Molecule: CC(=O)C(=O)O [pyruvate]
- time course of pyruvate homo-exchange in proteoliposomes at ΔpH 1.6 [2]: the Mpc1/Mpc2 hetero‐complex was also active for ΔpH‐dependent pyruvate transport (Fig EV4D)

B1: Mpc1 (Mpc1/Mpc3 hetero-dimer, mitochondrial pyruvate carrier) (Saccharomyces cerevisiae S288C) (protein)
chain 1: MSQPVQRAAARSFLQKYINKETLKYIFTTHFWGPVSNFGIPIAAIYDLKKDPTLISGPMTFALVTYSGVFMKYALSVSPKNYLLFGCHLINETAQLAQGYRFLKYTYFTTDEEKKALDKEWKEKEKTGKQ
chain 2: KTVHFWAPTLKWGLVFAGLNDIKRPVEKVSGAQNLSLLATALIWTRWSFVIKPKNYLLASVNFFLGCTAGYHLTRIANFRIRNGDSFKQVIHYIIKGETPAAVAAKQTASTSMNKGVIGTNPPITH
notes: Mpc1/Mpc3 hetero-complex, untagged Mpc1 co-expressed with C-terminally tagged Mpc3, reconstituted in liposomes; with Mpc3 (P53311)
- Km (purified protein): 342 ± 58 µM

B2: Mpc1 (untagged), mitochondrial pyruvate carrier protein 1 from Saccharomyces cerevisiae (natural protein, S. cerevisiae, UniProt P53157 1-130, looked up)
chain: MSQPVQRAAARSFLQKYINKETLKYIFTTHFWGPVSNFGIPIAAIYDLKKDPTLISGPMTFALVTYSGVFMKYALSVSPKNYLLFGCHLINETAQLAQGYRFLKYTYFTTDEEKKALDKEWKEKEKTGKQ
notes: Mpc1, S. cerevisiae, UniProt P53157; codon-optimised synthetic gene; theoretical mass 15 kDa; also called unmodified Mpc1; source: S. cerevisiae mitochondria (SHY15 or W303-1B), co-expressed from pBEVY-GU with histidine-tagged Mpc3 or Mpc2; co-purified on nickel Sepharose in LMNG and tetraoleoyl cardiolipin
- stoichiometry N [3]: 1 Mpc1:Mpc3
- stoichiometry N [4]: 1 Mpc1:Mpc3

Molecule: B3
- stoichiometry N [5]: 2
